The values below come from the supplement of paper PMC12317010.

Counter-ions that a name gives are not always drawn.

The nature of this series: collision cross section in nitrogen (drift tube, single-field); higher = larger gas-phase ion size.
Setting [1] is: ion type: [M+H], ion source: APCI, ion mode: Positive.
Where [2] appears, read: ion type: [M+H], ion source: ESI, ion mode: Positive.
The mark [3] stands for this setting: ion type: [M+Na], ion source: ESI, ion mode: Positive.
[4] abbreviates: ion type: [M+], ion source: APCI, ion mode: Positive.
Setting [5] is: ion type: [M-H], ion source: ESI, ion mode: Negative.
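Further: chemical standards at 10 µM analysed by drift tube IMS-QTOF MS in about 3.95 torr nitrogen, mean of duplicate injections differing ≤1%, mass error below 10 ppm.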

For `COc1c2occc2c(OC)c2c(=O)cc(C)oc12` [Khellin], the “collision cross section in nitrogen” value reads like this: under setting [1], 151.6 Å²; under setting [2], 151.1 Å²; under setting [3], 167.5 Å².
For `CCc1c(C)cc(N)c(CC)c1N` [Diethylmethylbenzenediamine], in that order: 140.6 Å², 141.3 Å² and 145.3 Å².
`Oc1c(I)cc(I)cc1I` [2,4,6-Triiodophenol]: the “collision cross section in nitrogen” value by setting is: under setting [4], 139.5 Å²; under setting [5], 143.5 Å².
For `O=C(Nc1cccc(C(F)(F)F)c1)c1cc(Br)cc(Br)c1O` [Fluorosalan], the “collision cross section in nitrogen” value under setting [5] is 175.5 Å².
As for `CO/N=C(/C1=NOCCO1)c1ccccc1Oc1ncnc(Oc2ccccc2Cl)c1F` [Fluoxastrobin], the “collision cross section in nitrogen” value came to 204.8 Å² under setting [1], 204.3 Å² under setting [2] and 208.1 Å² under setting [3].
Take `CC(C)COC(=O)CC(C(=O)OCC(C)C)S(=O)(=O)O` (stereo unspecified) [Sodium 1,4-diisobutyl sulfosuccinate]: the “collision cross section in nitrogen” value under setting [5] is reported as 174.4 Å².
For the molecule `O=C(O)C[C@H](O)C[C@H](O)/C=C/c1c(C2CC2)nc2ccccc2c1-c1ccc(F)cc1` [Pitavastatin calcium], the “collision cross section in nitrogen” value by setting is: under setting [1], 202.3 Å²; under setting [2], 203.2 Å²; under setting [3], 196.7 Å²; under setting [5], 207.8 Å².
Regarding `O=C(Nc1ccccc1)Nc1cnns1` [Thidiazuron], the “collision cross section in nitrogen” value is, setting by setting: under setting [1], 148.4 Å²; under setting [2], 147.9 Å².
For `CC(C)(C)C(O)/C(=C\c1ccc(Cl)cc1Cl)n1cncn1` (stereo unspecified) [Diniconazole], in that order: 177.9 Å² and 177.1 Å².
Take `CNCCCC12CCC(c3ccccc31)c1ccccc12` [Maprotiline hydrochloride]: the “collision cross section in nitrogen” value runs as follows: under setting [1], 164.1 Å²; under setting [2], 164.3 Å².
Turning to `Cc1ccc(N)cc1O` [5-Amino-2-methylphenol], the “collision cross section in nitrogen” value under setting [2] was determined as 123.5 Å².
As for `O=S(=O)(O)C(F)(F)C(F)(F)C(F)(F)C(F)(F)C(F)(F)C(F)(F)C(F)(F)C(F)(F)F` [Perfluorooctanesulfonic acid], the “collision cross section in nitrogen” value under setting [5] is on record as 168.7 Å².
`O=C(CCCCCCCCc1cccnc1)N1CCC(C=C(c2ccccc2)c2ccccc2)CC1` [Ro 23-7637]: the “collision cross section in nitrogen” value came out at 239.1 Å² under setting [1], 238 Å² under setting [2] and 242.7 Å² under setting [3].
In the case of `COc1cccc(C(=O)NN(C(=O)c2cc(C)cc(C)c2)C(C)(C)C)c1C` [Methoxyfenozide], the “collision cross section in nitrogen” value is listed as 201.9 Å² under setting [3] and 194.2 Å² under setting [5].
Regarding `CCCCCCCCCCCCCCCC[N+](C)(C)C` [Hexadecyltrimethylammonium bromide], the “collision cross section in nitrogen” value reads like this: (ion source: APCI, ion mode: Positive, ion type: [M]+ (permanent cation)) 193.1 Å²; (ion source: ESI, ion mode: Positive, ion type: [M]+ (permanent cation)) 195.1 Å².
Take `O=C1NC(=O)[C@@H]2CC=CC[C@H]12` [cis-1,2,3,6-Tetrahydrophthalimide]: the “collision cross section in nitrogen” value under setting [5] worked out at 133 Å².
Regarding `Cc1cc2c(cc1C(F)(F)F)N(C(=O)Nc1ccc(Oc3cccnc3C)nc1)CC2`, the “collision cross section in nitrogen” value is, setting by setting: under setting [1], 214.2 Å²; under setting [2], 213.8 Å²; under setting [3], 211 Å²; under setting [5], 209.1 Å².
With `Cc1cc(-c2ccc(N)c(C)c2)ccc1N` [3,3'-Dimethylbenzidine], the “collision cross section in nitrogen” value is, setting by setting: under setting [1], 166.1 Å²; under setting [2], 166.5 Å²; under setting [4], 150.8 Å².
Take `O=C1NS(=O)(=O)c2ccccc21` [Calcium saccharin hydrate]: the “collision cross section in nitrogen” value under setting [5] is reported as 130.5 Å².
As to `CCN(CC)c1ccc2cc(-c3nc4cc(S(N)(=O)=O)ccc4o3)c(=O)oc2c1`, the “collision cross section in nitrogen” value by setting is: under setting [2], 205.5 Å²; under setting [3], 219.6 Å²; under setting [5], 218.6 Å².
As to `COc1cc([C@@H]2c3cc4c(cc3[C@@H](O[C@@H]3O[C@@H]5CO[C@@H](C)O[C@H]5[C@H](O)[C@H]3O)[C@H]3COC(=O)[C@H]23)OCO4)cc(OC)c1O` [Etoposide], the “collision cross section in nitrogen” value runs as follows: under setting [3], 249.8 Å²; under setting [5], 239.5 Å².
As to `C=CCS(=O)(=O)O` [2-Propene-1-sulfonic acid, sodium salt], the “collision cross section in nitrogen” value under setting [5] stood at 119.1 Å².
As for `CCN1CCCC1=O` [1-Ethyl-2-pyrrolidinone], under setting [1], the “collision cross section in nitrogen” value came to 121.7 Å².
On to `CCc1cccc(C)c1N(C(=O)CCl)C(C)COC` (stereo unspecified) [Metolachlor], for which the “collision cross section in nitrogen” value came to 158.9 Å² under setting [1], 159.8 Å² under setting [2] and 172.6 Å² under setting [3].
Take `CC(=O)C(=NNc1ccc(-c2ccc(NN=C(C(C)=O)C(=O)Nc3ccc(C)cc3C)c(Cl)c2)cc1Cl)C(=O)Nc1ccc(C)cc1C` [C.I. Pigment Yellow 13]: the “collision cross section in nitrogen” value under setting [1] is 238.9 Å² and the “collision cross section in nitrogen” value under setting [4] is 238.3 Å².
As to `Cn1cc(-c2ccccc2)c(=O)c(-c2cccc(C(F)(F)F)c2)c1` [1-Methyl-3-phenyl-5-(3-(trifluoromethyl)phenyl)-4-pyridone], the “collision cross section in nitrogen” value under setting [1] stood at 179.6 Å², the “collision cross section in nitrogen” value under setting [2] is given as 179.8 Å², the “collision cross section in nitrogen” value under setting [3] is reported as 187.5 Å² and the “collision cross section in nitrogen” value under setting [5] is listed as 178.9 Å².
On to `CNC(=O)[C@H]1O[C@@H](n2cnc3c(NCc4cc(Cl)ccc4OCc4cc(C)no4)ncnc32)[C@H](O)[C@@H]1N`, for which the “collision cross section in nitrogen” value under setting [1] was 216.1 Å², the “collision cross section in nitrogen” value under setting [2] is recorded as 216.2 Å² and the “collision cross section in nitrogen” value under setting [3] is recorded as 223.6 Å².
For `Cc1cccc(N(C)C(=S)Oc2ccc3ccccc3c2)c1` [Tolnaftate], in that order: 175.5 Å², 175.4 Å² and 185.4 Å².
For `CCN1CCC2(CC1)COc1cc3c(cc12)N(C(=O)c1ccc(-c2ccc(-c4nnc(C)o4)cc2C)cc1)CC3`, in that order: 229.6 Å², 229.1 Å² and 264.1 Å².
For `Cn1c(=O)c2[nH]cnc2n(C)c1=O` [Theophylline], in that order: 136.3 Å², 137.3 Å² and 146.7 Å².
For `CCCCCCCCCCCCCCN(CCO)CCO` [2,2'-(Tetradecylimino)diethanol], the “collision cross section in nitrogen” value was 193 Å² under setting [1], 193.2 Å² under setting [2] and 187.4 Å² under setting [3].
`O=C(NC(=O)c1cc(F)c(F)cc1Cl)Nc1cc(F)ccc1N1CCC(C(=O)O)CC1` [AVE2865]: the “collision cross section in nitrogen” value under setting [1] turned out to be 202.7 Å², the “collision cross section in nitrogen” value under setting [2] is on record as 202.4 Å², the “collision cross section in nitrogen” value under setting [3] was 195.9 Å² and the “collision cross section in nitrogen” value under setting [5] worked out at 196.2 Å².
Turning to `Cc1ccc2ncccc2c1` [6-Methylquinoline], the “collision cross section in nitrogen” value reads like this: under setting [1], 125.7 Å²; under setting [2], 125.8 Å²; under setting [4], 124.3 Å².
Turning to `O=S(=O)(O)c1ccc(N=Nc2c(O)ccc3ccccc23)c2ccccc12` [C.I. Acid Red 88, monosodium salt], the “collision cross section in nitrogen” value under setting [5] came to 193.7 Å².
With `COc1ccc(CC#N)cc1` [4-Methoxyphenylacetonitrile], the “collision cross section in nitrogen” value under setting [1] was determined as 127.3 Å².
As for `CCCCC(CC)COC(=O)CC(C(=O)OCC(CC)CCCC)S(=O)(=O)O` (stereo unspecified) [Docusate sodium], under setting [5], the “collision cross section in nitrogen” value is 206.1 Å².
With `CCOP(=O)(OCC)OC(=CCl)c1ccc(Cl)cc1Cl` [Chlorfenvinphos], the “collision cross section in nitrogen” value is reported as 168.7 Å² under setting [1], 170.1 Å² under setting [2] and 181 Å² under setting [3].
On to `COc1ccc([C@@H]2Sc3ccccc3N(CCN(C)C)C(=O)[C@@H]2OC(C)=O)cc1` [Diltiazem hydrochloride], for which the “collision cross section in nitrogen” value under setting [2] stood at 197.8 Å² and the “collision cross section in nitrogen” value under setting [3] is listed as 203.2 Å².
Take `O=C1OC2(c3ccccc31)c1cc(I)c(O)c(I)c1Oc1c2cc(I)c(O)c1I` [C.I. Solvent Red 140]: the “collision cross section in nitrogen” value under setting [1] came to 211.8 Å², the “collision cross section in nitrogen” value under setting [2] worked out at 211.3 Å² and the “collision cross section in nitrogen” value under setting [5] is listed as 218.2 Å².
As to `O=C(NC(=O)c1c(F)cccc1F)Nc1ccc(OC(F)(F)C(F)OC(F)(F)F)c(Cl)c1` (stereo unspecified) [Novaluron], the “collision cross section in nitrogen” value under setting [5] came to 204.4 Å².
On to `C=CC(C)(CCC=C(C)C)OC(C)=O` (stereo unspecified) [Linalyl acetate], for which the “collision cross section in nitrogen” value under setting [5] amounted to 152 Å².
Regarding `CC(C)(c1cc(Br)c(O)c(Br)c1)c1cc(Br)c(O)c(Br)c1` [3,3',5,5'-Tetrabromobisphenol A], the “collision cross section in nitrogen” value under setting [5] is reported as 193.4 Å².
Turning to `CCCCc1c(C)nc(NCC)nc1OS(=O)(=O)N(C)C` [Bupirimate], the “collision cross section in nitrogen” value under setting [1] was determined as 175.8 Å², the “collision cross section in nitrogen” value under setting [2] came to 175.8 Å², the “collision cross section in nitrogen” value under setting [3] stood at 181.8 Å² and the “collision cross section in nitrogen” value under setting [5] was found to be 175.9 Å².
Regarding `CCCCc1ccc(N)cc1` [4-Butylaniline], under setting [2], the “collision cross section in nitrogen” value amounted to 149.8 Å².
With `c1ccc(Nc2cccc3ccccc23)cc1` [N-Phenyl-1-naphthylamine], the “collision cross section in nitrogen” value under setting [1] is 149.7 Å², the “collision cross section in nitrogen” value under setting [4] worked out at 148.7 Å² and the “collision cross section in nitrogen” value under setting [5] came to 152.1 Å².
Turning to `CCc1cc(Cc2cc(CC)cc(C(C)(C)C)c2O)c(O)c(C(C)(C)C)c1` [2,2'-Methylenebis(ethyl-6-tert-butylphenol)], the “collision cross section in nitrogen” value under setting [5] is listed as 203.6 Å².
`CCOc1ccc(NC(=O)CC(C)=O)cc1` [N-(4-Ethoxyphenyl)-3-oxobutanamide]: the “collision cross section in nitrogen” value under setting [1] is 154.6 Å², the “collision cross section in nitrogen” value under setting [3] came to 167.3 Å² and the “collision cross section in nitrogen” value under setting [5] stood at 155.9 Å².
As to `N#Cc1ccc(N(CC(N)=O)CC(F)(F)F)cc1C(F)(F)F`, the “collision cross section in nitrogen” value under setting [5] was found to be 163.7 Å².
